Where “and” joins values, the source holds several entries; their conditions need not be identical. Equal values may be shown once.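 Values below derive from 48-hour exposures of cells grown in 96-well plates, with endpoints linearly interpolated between the two concentrations bracketing the appropriate inhibition level. GI50 is the concentration that inhibits growth by half. The concentration for full growth arrest is given as TGI.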
What was measured:
Assay in all cases: growth of human tumour cells (NCI), 48 h
SK-OV-3 ovarian = system: SK-OV-3 ovarian
SNB-19 CNS = system: SNB-19 CNS
OVCAR-8 ovarian = system: OVCAR-8 ovarian
KM12 colon = system: KM12 colon
MDA-MB-435 = system: MDA-MB-435
NCI-H522 lung = system: NCI-H522 lung
NCI-H23 lung = system: NCI-H23 lung
K-562 leukemia = system: K-562 leukemia
IGROV1 ovarian = system: IGROV1 ovarian
CCRF-CEM leukemia = system: CCRF-CEM leukemia

SMILES	TGI (SK-OV-3 ovarian) [µM]	TGI (SNB-19 CNS)	TGI (OVCAR-8 ovarian) [µM]	TGI (KM12 colon) [µM]	TGI (MDA-MB-435) [µM]	TGI (NCI-H522 lung)	TGI (NCI-H23 lung) [µM]	TGI (K-562 leukemia) [µM]	TGI (IGROV1 ovarian) [µM]	TGI (CCRF-CEM leukemia) [µM]	GI50 (MDA-MB-435) [µM]	GI50 (NCI-H522 lung) [µM]	GI50 (NCI-H23 lung) [µM]	GI50 (SK-OV-3 ovarian) [µM]	GI50 (SNB-19 CNS) [µM]	GI50 (OVCAR-8 ovarian) [µM]	GI50 (KM12 colon) [µM]	GI50 (K-562 leukemia) [µM]	GI50 (CCRF-CEM leukemia) [µM]	GI50 (IGROV1 ovarian) [µM]
CS(=O)(=O)c1ccc(/C=N/NC(N)=S)cc1	> 100	> 100 µM	> 100	> 100	> 100	> 100 µM	> 100	> 100	> 100											
CC1(C)CC23C4COC(=O)C2CCC1C3CC4=O (stereo not given)	104	81.2 µM	46.6	27.2		11.2 µM	10.8	123	69	43.4										
CC[C@]1(O)C[C@H]2CN(CCc3c([nH]c4ccccc34)[C@@](C(=O)OC)(c3cc4c(cc3OC)N(C=O)[C@H]3[C@@](O)(C(=O)OC)[C@H](OC(C)=O)[C@]5(CC)C=CCN6CC[C@]43[C@@H]65)C2)C1		43.1 µM and 17.7 µM				0.226 µM and 0.143 µM					0.0122	0.00705	< 0.001							
CCOc1ccc2nc(-c3ccc(O)cc3)sc2c1	94.3	> 100 µM	> 100	> 100	> 100	89.7 µM	> 100	> 100	> 100											
C/C=C/[C@H]1O[C@@](O)([C@@H](C)[C@H](O)[C@H](C)[C@H]2OC(=O)/C(OC)=C/C(C)=C/[C@@H](C)[C@@H](O)[C@@H](CC)[C@@H](O)[C@H](C)C/C(C)=C/C=C/[C@@H]2OC)C[C@H](OC2CC(O)C(O)C(C)O2)[C@@H]1C (stereo not given in full)	16.9	15.7 µM	12	12	8.87	1.48 µM	17.5		17	< 0.0075										
CCOC(=O)NC(Nc1ncccn1)(C(F)(F)F)C(F)(F)F	> 100	> 100 µM		> 100	> 100	> 100 µM	> 100	> 100		> 100										
O=C(O)c1ccccc1NC(c1ccccc1)c1ccc2cccnc2c1O (stereo not given)	> 100	> 100 µM	> 100	> 100	> 66.9	23.3 µM	> 53	53.3	> 100	> 22.7										
N/C(=N\N=C/c1ccccc1O)NO	> 87.1	> 91.3 µM	> 43.7	> 100		29.8 µM	53.9	> 77.6	> 100	> 50.9										
O=C(Nc1cccc(-n2ccc3c(NC(=O)c4ccccc4)nccc32)c1)c1ccc(N2CCOCC2)c(C(F)(F)F)c1	2.66	> 100 µM	> 100	1.36	0.046	0.545 µM	> 90.1	> 100	> 75.4	> 100	0.0191	0.0319	0.0679	0.0326	0.058	0.055	0.0364	0.0387	0.0618	0.057
O=C(O)c1cc2ccccc2c(N=Nc2ccccc2)c1O	> 100	79.6 µM	> 100	36.4	35.5	59.6 µM	56.1	> 100	> 100	> 100										
O=[N+]([O-])c1nc(-c2ccccn2)[nH]c1[N+](=O)[O-]	> 100	> 100 µM		> 100		37.1 µM	> 100	> 100	> 100	> 100										
O=C1OC[C@@H]2[C@@H](O)CCCCCN12	> 100	> 100 µM	> 100	> 100	> 100	> 100 µM		> 100	> 100	> 100										
COc1cc2c(cc1OC)-c1cc3ccccc3c[n+]1CC2	> 100	> 100 µM	> 100	> 100	> 100	68.3 µM	> 100	> 100	> 100	> 100										
CCS(=O)(=O)N1CCC(C(C)n2c(C)c(C(=O)NCc3c(OC)cc(C)[nH]c3=O)c3ccccc32)CC1 (stereo not given)	> 100		> 100	> 100	> 100	> 100 µM	> 100		> 100		> 100	> 100	> 100	> 100		> 100	> 100			57.6
O=C1OC(c2ccccc2)=N/C1=C\c1cccnc1	> 100	> 100 µM	> 100	> 100	> 100	> 100 µM	> 100	> 100	> 100	> 100										
C/C(CC/C(C)=N/O)=N\O	> 100	> 100 µM	> 100	> 100	> 100	> 100 µM	> 100	> 100	> 100											
Fc1ccc2[nH]cc(-c3nc(-c4c[nH]c5ncccc45)cs3)c2c1				> 100	> 100			> 100	> 100		12.5						4.65	5.03		4.46
COC1=C2CC(C)CC(OC)C(O)C(C)/C=C(\C)C(OC(N)=O)C(OC)/C=C\C=C(/C)C(=O)NC(=C(C=NC(C)(C)C)C1=O)C2=O (stereo not given)	67.3	26.9 µM	73.6	15		1.63 µM	5.17	6.26	53.2	22.2										

Source: PubChem BioAssay (NCI)
